From paper PMC8899577, “Targeting the anti-apoptotic Bcl-2 family proteins: machine learning virtual screening and biological evaluation of new small molecules” (Theranostics, 2022) come the findings set out here.

In one experiment the test system is M14 cells. In words: Flow cytometry subG1 peak (PI staining), M14. Type of experiment: cell-based, Human. Conditions: 20 µM for 72 h. Here is the method: (§1) Flow cytometric analysis (BD Accuri™ C6, BD Biosciences) was performed to evaluate cell cycle distribution by propidium iodide (PI) staining, and cell viability by using the PI dye exclusion assay as previously reported.
(§2) Figure 5 Analysis of apoptosis induction by IS20 and IS21 in leukemia, melanoma and NSCLC cells. […] (A-F) Reported images are representative of two independent experiments with similar results. HSP72/73 or α-Tubulin are shown as loading and transferring control. (G) Flow cytometric quantification of cells in the subG1 peak of cell cycle distribution by propidium iodide staining in HL60 cell line treated with IS20 or IS21 (20 μM for 24 h) and in M14, H1299 and MDA-MB-231 cell lines treated with IS20 or IS21 (20 μM for 72 h). Data are reported as mean ± SD of three independent experiments. p-values were calculated between control (Ctrl) and treated cells, * p < 0.05. (H) Flow cytometric quantification of cells in the subG1 peak by propidium iodide staining in M14 and H1299 cell lines treated with IS20 or IS21 (20 μM, 72 h) in presence or absence of the pan caspase inhibitor z-VAD (50 μM). p-values were calculated between treated control (Ctrl) cells, # p < 0.01, ## p < 0.001 or between cells treated with IS20 or IS21 alone or in combination with z-VAD, * p < 0.05, ** p < 0.005. (G-H) Data are reported as mean of two (H) or three (G) experiments ± SD.

In a further experiment the target is Mcl-1 (Homo sapiens, UniProt Q07820). In words: SPR binding to immobilized Mcl-1. The following applies: 25 °C, 2-site fit, highest affinity site. On the procedure:
(§3) FastStep experiments were performed with a SensiQ Pioneer apparatus. Bcl-2 immobilization on COOH5 sensorchips was carried out essentially as previously reported, [40]. All the experiments were carried out at 25 °C in degassed HEPES 20 mM, pH 7.4, NaCl 150 mM, 0.005% surfactant P20 + 2% DMSO (HBSP2%D). […] Each sensorgram is the average of at least three experiments. The decrease in Response Units (RU) after 165 s indicates analyte dissociation from the immobilized Bcl-2 upon HSBP2%D buffer injection. Control SPR experiments were carried out measuring sensorgrams on Bcl-xL and Mcl-1 (ligands) immobilized on COOH5 sensorchips as previously reported at 25 °C in degassed HBSP2%D buffer. […] Each sensorgram is the average of at least three experiments. The decrease in RU after 180 s indicates analyte dissociation from the immobilized ligands upon HSBP2%D buffer injection. Kinetic evaluation of the sensorgrams was carried out using the Qdat 4.0 program; best fittings were obtained with 2 sites and indicated in red (reported KD values refer to dissociation constants of the highest affinity site).
Figure 3 SPR analysis of the interaction between IS20 or IS21 and Bcl-xL and Mcl-1 proteins. SPR experiments were carried out measuring sensorgrams on Bcl-xL and Mcl-1 (ligands) immobilized on COOH5 sensorchips at 25 °C in degassed HBSP2%D buffer. IS20 and IS21 (analytes) were injected at a flow rate = 30 μL/min, at the following concentrations: 0.3 μM (only for Mcl-1 experiments); 1 μM; 3 μM; 10 μM; 30 μM. Each sensorgram is the average of at least three experiments. The decrease in RU (Response Units) after 180 s indicates analyte dissociation from the immobilized ligands upon HSBP2%D buffer injection. The fitted KD values for Bcl-xL are the following. IS20: 0.42 ± 0.09 μM and IS21: 0.51 ± 0.17 μM. The fitted KD values for Mcl-1are the following. IS20: 3.9 ± 0.30 μM and IS21: 1.16 ± 0.14 μM;
For orientation: In SPR one partner is held on a chip, and binding of the other changes the refractive index at the surface.

For another experiment, the target named is Bcl-xL (Homo sapiens, UniProt Q07817). Description: SPR binding to immobilized Bcl-xL. Conditions: 25 °C, 2-site fit, highest affinity site. On the procedure: as §3
Chain of Bcl-xL (Q07817 whole entry): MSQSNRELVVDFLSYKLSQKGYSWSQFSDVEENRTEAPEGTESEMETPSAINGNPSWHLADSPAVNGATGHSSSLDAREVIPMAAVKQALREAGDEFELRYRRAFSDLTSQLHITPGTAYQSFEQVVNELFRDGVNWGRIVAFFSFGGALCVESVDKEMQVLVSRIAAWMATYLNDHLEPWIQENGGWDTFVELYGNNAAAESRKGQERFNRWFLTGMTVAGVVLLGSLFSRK
Each sensorgram is the average of at least three experiments.

For the next experiment, the system named is H1299 cells. Description: Flow cytometry subG1 peak (PI staining), H1299. Type of experiment: cell-based, Human. The following applies: 20 µM for 72 h. Here is the method:
as §1, §2
On the technique in general: Flow cytometry measures light scatter and fluorescence of single cells or particles in a stream.

The subject of the next experiment is HCT116 cells. In words: Western blot of PARP1 cleavage, HCT116. Conditions: 72 h. Type of experiment: cell-based, Human. Here is the method: Western blot analyses of total protein extracts were performed as previously described. Immunodetection was performed using antibodies directed to poly (ADP-ribose) polymerase (PARP; BD Biosciences San Diego, CA, USA), LC3B (Cell Signaling Technology, Danvers, MA), HSP72/73 (Calbiochem, EMD Biosciences, La Jolla, CA), Bcl-2 (SC-509, Santa Cruz Biotechnology Inc, Dallas, TX, USA), Bcl-xL (SC-271121, Santa Cruz Biotechnology Inc), Mcl-1 (SC-12756, Santa Cruz Biotechnology Inc) α-tubulin (Santa Cruz Biotechnology Inc) actin (Sigma-Aldrich, St. Louis, Missouri, USA). Anti-rabbit or anti-mouse immunoglobulin G-horseradish peroxidase-conjugated antibodies (Amersham Biosciences, Freiburg, Germany) were used as secondary antibody. Images were acquired by Image Lab Software (Bio-Rad, Hercules, CA, USA), using a ChemiDoc System instrument (Bio-Rad). […]
Figure 5 Analysis of apoptosis induction by IS20 and IS21 in leukemia, melanoma and NSCLC cells. […] (G) Flow cytometric quantification of cells in the subG1 peak of cell cycle distribution by propidium iodide staining in HL60 cell line treated with IS20 or IS21 (20 μM for 24 h) and in M14, H1299 and MDA-MB-231 cell lines treated with IS20 or IS21 (20 μM for 72 h). Data are reported as mean ± SD of three independent experiments. p-values were calculated between control (Ctrl) and treated cells, * p < 0.05. […]
On the technique in general: Immunoblotting shows a protein as a band on a membrane.

The term Kd denotes the constant that tells how readily two partners part at equilibrium. High values mean weaker binding, low ones tighter binding.

Chain of Mcl-1 (Q07820 whole entry): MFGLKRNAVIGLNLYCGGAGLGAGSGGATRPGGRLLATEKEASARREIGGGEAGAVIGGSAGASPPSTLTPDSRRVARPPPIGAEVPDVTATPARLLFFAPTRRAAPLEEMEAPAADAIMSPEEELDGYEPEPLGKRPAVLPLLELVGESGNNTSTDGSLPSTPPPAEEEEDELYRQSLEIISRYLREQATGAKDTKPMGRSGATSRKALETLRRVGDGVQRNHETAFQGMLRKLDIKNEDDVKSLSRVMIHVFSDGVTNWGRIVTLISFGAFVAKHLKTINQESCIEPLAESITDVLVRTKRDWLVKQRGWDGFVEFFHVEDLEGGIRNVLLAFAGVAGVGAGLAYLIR

On to `CCCCCOc1ccc(C2/C(=C(\O)c3ccc4c(c3)CC(C)O4)C(=O)C(=O)N2c2nnc(SCc3ccc(Cl)cc3)s2)cc1OCC` (stereo not shown) [IS21], for which the “subG1 peak of cell cycle distribution, M14” value in the experiment with M14 cells is given as “presence of subG1 peak”. In addition, the Kd at Mcl-1 came out at 1160 ± 140 nM; at Bcl-xL, 510 ± 170 nM. Moreover, the “subG1 peak of cell cycle distribution, H1299” value in the experiment on H1299 cells is given as “presence of subG1 peak”. For the same compound, the “PARP1 cleavage, HCT116” value in the experiment on HCT116 cells was “not evident”.

Consider `CCCCOc1ccc(C2/C(=C(\O)c3ccc4c(c3)CC(C)O4)C(=O)C(=O)N2c2nnc(SCc3ccc(Cl)cc3)s2)cc1OCC` (stereo not shown) [IS20], for which the “subG1 peak of cell cycle distribution, M14” value with M14 cells is listed as “presence of subG1 peak”. The Kd was found to be 3900 ± 300 nM at Mcl-1 and 420 ± 90 nM at Bcl-xL. For the same compound, the “subG1 peak of cell cycle distribution, H1299” value with H1299 cells is listed as “presence of subG1 peak”. The “PARP1 cleavage, HCT116” value in the experiment with HCT116 cells was “not evident”.
